Assay results taken from ChEMBL document CHEMBL1177642, “Synthesis and antibacterial studies of binaphthyl-based tripeptoids. Part 2” (2010).
≈ marks a conversion by molar mass, not a printed value.

Columns and labels:
Format in all cases: functional
Staphylococcus aureus = experiment: Antimicrobial activity against methicillin-resistant Staphylococcus aureus ATCC 43300 after overnight incubation
Enterococcus faecium [1] = experiment: Antimicrobial activity against vancomycin-resistant Enterococcus faecium 243 after overnight incubation
Enterococcus faecium [2] = experiment: Antimicrobial activity against vancomycin-resistant Enterococcus faecium 449 after overnight incubation
Enterococcus faecium [3] = experiment: Antimicrobial activity against vancomycin-resistant Enterococcus faecium 820 after overnight incubation
Enterococcus faecium [4] = experiment: Antimicrobial activity against vancomycin-resistant Enterococcus faecium 987 after overnight incubation

SMILES: C=CCOc1ccc2ccccc2c1-c1c(OCC(=O)N[C@H](CCCCN)C(=O)N[C@H](CCCNC(=N)N)C(=O)N[C@@H](CC=C)C(=O)OCc2ccccc2)ccc2ccccc12.Cl.Cl
- MIC50 (Staphylococcus aureus): 1.96 µg/mL
- MIC50 (Enterococcus faecium [1]): 31.3 µg/mL
- MIC50 (Enterococcus faecium [2]): 31.3 µg/mL
- MIC50 (Enterococcus faecium [3]): 31.3 µg/mL
- MIC50 (Enterococcus faecium [4]): 31.3 µg/mL

SMILES: C=CC[C@H](NC(=O)[C@@H](CCCNC(=N)N)NC(=O)[C@@H](CCCCN)NC(=O)COc1ccc2ccccc2c1-c1c(OCc2ccccc2)ccc2ccccc12)C(=O)OCc1ccccc1.Cl.Cl
- MIC50 (Staphylococcus aureus): 3.9 µg/mL
- MIC50 (Enterococcus faecium [1]): 62.5 µg/mL
- MIC50 (Enterococcus faecium [2]): 62.5 µg/mL
- MIC50 (Enterococcus faecium [3]): 62.5 µg/mL
- MIC50 (Enterococcus faecium [4]): 125 µg/mL

SMILES: C=CC[C@H](NC(=O)[C@@H](CCCNC(=N)N)NC(=O)[C@@H](CCCCN)NC(=O)COc1ccc2ccccc2c1-c1c(OC)ccc2ccccc12)C(=O)OCc1ccccc1.Cl.Cl
- MIC50 (Staphylococcus aureus): 7.8 µg/mL
- MIC50 (Enterococcus faecium [1]): 125 µg/mL
- MIC50 (Enterococcus faecium [2]): 62.5 µg/mL
- MIC50 (Enterococcus faecium [3]): 62.5 µg/mL
- MIC50 (Enterococcus faecium [4]): 125 µg/mL

SMILES: C=CC[C@H](NC(=O)[C@@H](CCCNC(=N)N)NC(=O)[C@@H](CCCCN)NC(=O)COc1ccc2ccccc2c1-c1c(OCCCCC)ccc2ccccc12)C(=O)OCc1ccccc1.Cl.Cl
- MIC50 (Staphylococcus aureus): 3.9 µg/mL
- MIC50 (Enterococcus faecium [1]): 62.5 µg/mL
- MIC50 (Enterococcus faecium [2]): 62.5 µg/mL
- MIC50 (Enterococcus faecium [3]): 31.3 µg/mL
- MIC50 (Enterococcus faecium [4]): 62.5 µg/mL

SMILES: C=CC[C@H](NC(=O)[C@@H](CCCNC(=N)N)NC(=O)[C@@H](CCCCN)NC(=O)COc1ccc2ccccc2c1-c1c(OCC(C)C)ccc2ccccc12)C(=O)OCc1ccccc1.Cl.Cl
- MIC50 (Staphylococcus aureus): 1.95 µg/mL
- MIC50 (Enterococcus faecium [1]): 62.5 µg/mL
- MIC50 (Enterococcus faecium [2]): 52.1 µg/mL
- MIC50 (Enterococcus faecium [3]): 31.3 µg/mL
- MIC50 (Enterococcus faecium [4]): 62.5 µg/mL

SMILES: C=CC[C@H](NC(=O)[C@@H](CCCNC(=N)N)NC(=O)[C@@H](CCCCN)NC(=O)COc1ccc2ccccc2c1-c1c(OCC(C)(C)C)ccc2ccccc12)C(=O)OCc1ccccc1.Cl.Cl
- MIC50 (Staphylococcus aureus): 3.9 µg/mL
- MIC50 (Enterococcus faecium [1]): 62.5 µg/mL
- MIC50 (Enterococcus faecium [2]): 62.5 µg/mL
- MIC50 (Enterococcus faecium [3]): 31.3 µg/mL
- MIC50 (Enterococcus faecium [4]): 83.3 µg/mL

SMILES: C=CC[C@H](NC(=O)[C@@H](CCCNC(=N)N)NC(=O)[C@@H](CCCCN)NC(=O)COc1ccc2ccccc2c1-c1c(OCC2CCCCC2)ccc2ccccc12)C(=O)OCc1ccccc1.Cl.Cl
- MIC50 (Staphylococcus aureus): 3.9 µg/mL
- MIC50 (Enterococcus faecium [1]): 62.5 µg/mL
- MIC50 (Enterococcus faecium [2]): 62.5 µg/mL
- MIC50 (Enterococcus faecium [3]): 31.3 µg/mL
- MIC50 (Enterococcus faecium [4]): 62.5 µg/mL

SMILES: C[C@H](NC(=O)[C@@H](CCCNC(=N)N)NC(=O)[C@@H](CCCCN)NC(=O)COc1ccc2ccccc2c1-c1c(O)ccc2ccccc12)C(=O)OCc1ccccc1.Cl.Cl
- MIC50 (Staphylococcus aureus): 7.8 µg/mL
- MIC50 (Enterococcus faecium [1]): 125 µg/mL
- MIC50 (Enterococcus faecium [2]): 52.1 µg/mL
- MIC50 (Enterococcus faecium [3]): 62.5 µg/mL
- MIC50 (Enterococcus faecium [4]): 125 µg/mL

SMILES: C=CC[C@H](NC(=O)[C@@H](CCCNC(=N)N)NC(=O)[C@@H](CCCCN)NC(=O)COc1ccc2ccccc2c1-c1c(OCCCc2ccccc2)ccc2ccccc12)C(=O)OCc1ccccc1.Cl.Cl
- MIC50 (Staphylococcus aureus): 3.9 µg/mL
- MIC50 (Enterococcus faecium [1]): 62.5 µg/mL
- MIC50 (Enterococcus faecium [2]): 31.3 µg/mL
- MIC50 (Enterococcus faecium [3]): 31.3 µg/mL
- MIC50 (Enterococcus faecium [4]): 62.5 µg/mL

SMILES: CCCCCCCCOc1ccc2ccccc2c1-c1c(OCC(=O)N[C@H](CCCCN)C(=O)N[C@H](CCCNC(=N)N)C(=O)N[C@@H](CC(C)C)C(=O)OCc2ccccc2)ccc2ccccc12.Cl.Cl
- MIC50 (Staphylococcus aureus): 13 µg/mL
- MIC50 (Enterococcus faecium [1]): 125 µg/mL
- MIC50 (Enterococcus faecium [2]): 125 µg/mL
- MIC50 (Enterococcus faecium [3]): 62.5 µg/mL
- MIC50 (Enterococcus faecium [4]): 125 µg/mL

SMILES: CC(C)CCOc1ccc2ccccc2c1-c1c(OCC(=O)N[C@H](CCCCN)C(=O)N[C@H](CCCNC(=N)N)C(=O)N[C@@H](CC(C)C)C(=O)Oc2ccccc2)ccc2ccccc12.Cl.Cl
- MIC50 (Staphylococcus aureus): 3.9 µg/mL
- MIC50 (Enterococcus faecium [1]): 15.6 µg/mL
- MIC50 (Enterococcus faecium [2]): 15.6 µg/mL
- MIC50 (Enterococcus faecium [3]): 7.8 µg/mL
- MIC50 (Enterococcus faecium [4]): 15.6 µg/mL

SMILES: CC(C)CCOc1ccccc1-c1ccccc1OCC(=O)N[C@H](CCCCN)C(=O)N[C@H](CCCNC(=N)N)C(=O)N[C@@H](CC(C)C)C(=O)OCc1ccccc1.Cl.Cl
- MIC50 (Staphylococcus aureus): 1.95 µg/mL
- MIC50 (Enterococcus faecium [1]): 31.3 µg/mL
- MIC50 (Enterococcus faecium [2]): 31.3 µg/mL
- MIC50 (Enterococcus faecium [3]): 31.3 µg/mL
- MIC50 (Enterococcus faecium [4]): 31.3 µg/mL

SMILES: C=CCOc1ccc2ccccc2c1-c1c(OCC(=O)OCC)ccc2ccccc12
- MIC50 (Staphylococcus aureus): 3.9 µg/mL (≈ 9.45 µM)
- MIC50 (Enterococcus faecium [1]): 31.3 µg/mL (≈ 75.9 µM)
- MIC50 (Enterococcus faecium [2]): 31.3 µg/mL (≈ 75.9 µM)
- MIC50 (Enterococcus faecium [3]): 31.3 µg/mL (≈ 75.9 µM)
- MIC50 (Enterococcus faecium [4]): 62.5 µg/mL (≈ 152 µM)

SMILES: C=CC[C@H](NC(=O)[C@@H](CCCNC(=N)N)NC(=O)[C@@H](CCCCN)NC(=O)COc1ccc2ccccc2c1-c1c(OCC2CCC2)ccc2ccccc12)C(=O)OCc1ccccc1.Cl.Cl
- MIC50 (Staphylococcus aureus): 3.9 µg/mL
- MIC50 (Enterococcus faecium [1]): 62.5 µg/mL
- MIC50 (Enterococcus faecium [2]): 52.1 µg/mL
- MIC50 (Enterococcus faecium [3]): 31.3 µg/mL
- MIC50 (Enterococcus faecium [4]): 62.5 µg/mL

SMILES: CC(C)C[C@H](NC(=O)[C@@H](CCCNC(=N)N)NC(=O)[C@@H](CCCCN)NC(=O)COc1ccc2ccccc2c1-c1c(OCC#N)ccc2ccccc12)C(=O)OCc1ccccc1.Cl.Cl
- MIC50 (Staphylococcus aureus): 3.9 µg/mL
- MIC50 (Enterococcus faecium [1]): 62.5 µg/mL
- MIC50 (Enterococcus faecium [2]): 31.3 µg/mL
- MIC50 (Enterococcus faecium [3]): 31.3 µg/mL
- MIC50 (Enterococcus faecium [4]): 62.5 µg/mL

SMILES: CC(C)C[C@H](NC(=O)[C@@H](CCCNC(=N)N)NC(=O)[C@@H](CCCCN)NC(=O)COc1ccc2ccccc2c1-c1c(OCCC2CC2)ccc2ccccc12)C(=O)OCc1ccccc1.Cl.Cl
- MIC50 (Staphylococcus aureus): 3.9 µg/mL
- MIC50 (Enterococcus faecium [1]): 125 µg/mL
- MIC50 (Enterococcus faecium [2]): 31.3 µg/mL
- MIC50 (Enterococcus faecium [3]): 62.5 µg/mL
- MIC50 (Enterococcus faecium [4]): 62.5 µg/mL

SMILES: CC(C)C[C@H](NC(=O)[C@@H](CCCNC(=N)N)NC(=O)[C@@H](CCCCN)NC(=O)COc1ccc2ccccc2c1-c1c(OCCc2ccccc2)ccc2ccccc12)C(=O)OCc1ccccc1.Cl.Cl
- MIC50 (Staphylococcus aureus): 5.2 µg/mL
- MIC50 (Enterococcus faecium [1]): 31.3 µg/mL
- MIC50 (Enterococcus faecium [2]): 31.3 µg/mL
- MIC50 (Enterococcus faecium [3]): 15.6 µg/mL
- MIC50 (Enterococcus faecium [4]): 31.3 µg/mL

SMILES: COCCOc1ccc2ccccc2c1-c1c(OCC(=O)N[C@H](CCCCN)C(=O)N[C@H](CCCNC(=N)N)C(=O)N[C@@H](CC(C)C)C(=O)OCc2ccccc2)ccc2ccccc12.Cl.Cl
- MIC50 (Staphylococcus aureus): 3.9 µg/mL
- MIC50 (Enterococcus faecium [1]): 125 µg/mL
- MIC50 (Enterococcus faecium [2]): 31.3 µg/mL
- MIC50 (Enterococcus faecium [3]): 62.5 µg/mL
- MIC50 (Enterococcus faecium [4]): 62.5 µg/mL

SMILES: CN[C@H](CC(C)C)C(=O)N[C@H]1C(=O)N[C@@H](CC(N)=O)C(=O)N[C@H]2C(=O)N[C@H]3C(=O)N[C@H](C(=O)N[C@H](C(=O)O)c4cc(O)cc(O)c4-c4cc3ccc4O)[C@H](O)c3ccc(c(Cl)c3)Oc3cc2cc(c3O[C@@H]2O[C@H](CO)[C@@H](O)[C@H](O)[C@H]2O[C@H]2C[C@](C)(N)[C@H](O)[C@H](C)O2)Oc2ccc(cc2Cl)[C@H]1O [VANCOMYCIN]
- MIC50 (Staphylococcus aureus): 1.95 µg/mL (≈ 1.35 µM)
- MIC50 (Enterococcus faecium [1]): 1.95 µg/mL (≈ 1.35 µM)
- MIC50 (Enterococcus faecium [2]): 62.5 µg/mL (≈ 43.1 µM)
- MIC50 (Enterococcus faecium [3]): > 125 µg/mL
- MIC50 (Enterococcus faecium [4]): < 0.98 µg/mL
